In PubChem BioAssay AID180 (DTP/NCI, 2004):
Several values for one entry are separate records, joined by “and”; a condition that tells them apart may be missing. Equal values may be shown once.

System: BDF1 mice, Adenocarcinoma 755 s.c., tumor weight T/C
Assay: NCI In Vivo Anticancer Drug Screen. Data for tumor model Adenocarcinoma 755 (subcutaneous) in B6D2F1 (BDF1) mice
Conditions: endpoint: mean tumor weight, higher = larger tumour
How it was run: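 In vivo antitumor screen on a transplantable tumor line. Result equals the measure in compound-treated animals divided by the same measure in vehicle controls.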

[1] = dose: 25.0 mg/kg/injection, schedule: Q01DX011 (ip), vehicle: saline
[2] = dose: 30.0 mg/kg/injection, schedule: Q01DX011 (ip), vehicle: carboxymethylcellulose (CMC)
[3] = dose: 60.0 mg/kg/injection, schedule: Q01DX011 (ip), vehicle: carboxymethylcellulose (CMC)
[4] = dose: 12.5 mg/kg/injection, schedule: Q01DX011 (ip), vehicle: methylcellulose (MC)
[5] = dose: 50.0 mg/kg/injection, schedule: Q01DX011 (ip), vehicle: saline
[6] = dose: 31.0 mg/kg/injection, schedule: Q01DX011 (ip), vehicle: methylcellulose (MC)
[7] = dose: 62.0 mg/kg/injection, schedule: Q01DX011 (ip), vehicle: methylcellulose (MC)
[8] = dose: 125.0 mg/kg/injection, schedule: Q01DX011 (ip), vehicle: methylcellulose (MC)

**Q.** For `COC1CC(OS(C)(=O)=O)C(COS(C)(=O)=O)O1` (stereo unspecified), which T/C [1] is on record?
**A.** 120 % of control

**Q.** And the T/C (dose: 75.0 mg/kg/injection, schedule: Q01DX011 (ip), vehicle: saline)?
**A.** 117 % of control

**Q.** What about the T/C (dose: 225.0 mg/kg/injection, schedule: Q01DX011 (ip), vehicle: saline) of the same compound?
**A.** 104 % of control

**Q.** Which T/C [2] does the source give for `CC(=O)OCC1OC(n2cnc3c(=O)[nH]c(N)nc32)CC1OC(C)=O` (stereo unspecified) here?
**A.** 115 % of control

**Q.** What about the T/C [3] of the same compound?
**A.** 95 % of control

**Q.** And the T/C (dose: 120.0 mg/kg/injection, schedule: Q01DX011 (ip), vehicle: carboxymethylcellulose (CMC))?
**A.** 94 % of control

**Q.** And the T/C (dose: 240.0 mg/kg/injection, schedule: Q01DX011 (ip), vehicle: carboxymethylcellulose (CMC))?
**A.** 115 % of control

**Q.** Which results are given for `CN1C=NNc2ncnc(Cl)c21`?
**A.** T/C (dose: 125.0 mg/kg/injection, schedule: Q01DX011 (ip), vehicle: carboxymethylcellulose (CMC)): 166 % of control; T/C (dose: 250.0 mg/kg/injection, schedule: Q01DX011 (ip), vehicle: carboxymethylcellulose (CMC)): 161 % of control

**Q.** Which results are given for `O=S(=O)(F)c1ncnc2nc[nH]c12`?
**A.** T/C (dose: 3.13 mg/kg/injection, schedule: Q01DX011 (ip), vehicle: methylcellulose (MC)): 75 % of control; T/C (dose: 6.25 mg/kg/injection, schedule: Q01DX011 (ip), vehicle: methylcellulose (MC)): 113 % of control; T/C [4]: 72 % of control

**Q.** With `CC(=O)NCCSC(=O)C(=O)SCCNC(C)=O` as the compound, how does the T/C [1] read?
**A.** 62 % of control

**Q.** And the T/C [5]?
**A.** 65 % of control

**Q.** What about the T/C (dose: 200.0 mg/kg/injection, schedule: Q01DX011 (ip), vehicle: saline) of the same compound?
**A.** 42 % of control and 63 % of control

**Q.** For `CCCCn1cnc2c(SC)ncnc21`, which T/C (dose: 5.0 mg/kg/injection, schedule: Q01DX011 (ip), vehicle: saline) is on record?
**A.** 89 % of control

**Q.** And the T/C (dose: 7.5 mg/kg/injection, schedule: Q01DX011 (ip), vehicle: saline)?
**A.** 119 % of control

**Q.** What about the T/C (dose: 10.0 mg/kg/injection, schedule: Q01DX011 (ip), vehicle: saline) of the same compound?
**A.** 65 % of control

**Q.** What about the T/C (dose: 20.0 mg/kg/injection, schedule: Q01DX011 (ip), vehicle: saline) of the same compound?
**A.** 20 % of control

**Q.** And the T/C (dose: 30.0 mg/kg/injection, schedule: Q01DX011 (ip), vehicle: saline)?
**A.** 26 % of control

**Q.** And the T/C (dose: 40.0 mg/kg/injection, schedule: Q01DX011 (ip), vehicle: saline)?
**A.** 14 % of control

**Q.** And the T/C [5]?
**A.** 10 % of control

**Q.** What about the T/C (dose: 53.0 mg/kg/injection, schedule: Q01DX011 (ip), vehicle: saline) of the same compound?
**A.** 5 % of control

**Q.** What about the T/C (dose: 84.0 mg/kg/injection, schedule: Q01DX011 (ip), vehicle: saline) of the same compound?
**A.** 5 % of control

**Q.** What about the T/C (dose: 125.0 mg/kg/injection, schedule: Q01DX011 (ip), vehicle: saline) of the same compound?
**A.** 4 % of control

**Q.** What about the T/C (dose: 187.0 mg/kg/injection, schedule: Q01DX011 (ip), vehicle: saline) of the same compound?
**A.** 1 % of control

**Q.** What does the source list for `CCCn1cnc2c(SCc3ccccn3)nc(N)nc21`?
**A.** T/C (dose: 3.6 mg/kg/injection, schedule: Q01DX011 (ip), vehicle: methylcellulose (MC)): 12 % of control; T/C (dose: 7.25 mg/kg/injection, schedule: Q01DX011 (ip), vehicle: methylcellulose (MC)): 4 % of control; T/C (dose: 15.5 mg/kg/injection, schedule: Q01DX011 (ip), vehicle: methylcellulose (MC)): 1 % of control

**Q.** `CCCNc1ncnc2c1cnn2C1CCCO1` (stereo unspecified) was tested. Which T/C (dose: 1.5 mg/kg/injection, schedule: Q01DX011 (ip), vehicle: methylcellulose (MC)) did it give?
**A.** 75 % of control

**Q.** What about the T/C (dose: 3.1 mg/kg/injection, schedule: Q01DX011 (ip), vehicle: methylcellulose (MC)) of the same compound?
**A.** 66 % of control

**Q.** And the T/C (dose: 6.2 mg/kg/injection, schedule: Q01DX011 (ip), vehicle: methylcellulose (MC))?
**A.** 27 % of control

**Q.** And the T/C [4]?
**A.** 3 % of control and 4 % of control

**Q.** What does the source list for `CCc1c(CC(=O)O)c2cc(C)ccc2n1Cc1ccc(Cl)cc1`?
**A.** T/C (dose: 20.0 mg/kg/injection, schedule: Q01DX011 (ip), vehicle: carboxymethylcellulose (CMC)): 87 % of control; T/C (dose: 40.0 mg/kg/injection, schedule: Q01DX011 (ip), vehicle: carboxymethylcellulose (CMC)): 119 % of control; T/C (dose: 80.0 mg/kg/injection, schedule: Q01DX011 (ip), vehicle: carboxymethylcellulose (CMC)): 97 % of control; T/C (dose: 100.0 mg/kg/injection, schedule: Q01DX011 (ip), vehicle: carboxymethylcellulose (CMC)): 37 % of control

**Q.** With `Cn1c(=O)c2[nH]c(NN)nc2n(C)c1=O` as the compound, how does the T/C (dose: 25.0 mg/kg/injection, schedule: Q01DX011 (ip), vehicle: methylcellulose (MC)) read?
**A.** 66 % of control

**Q.** For `COc1ccc(/C=N/Nc2nc3c([nH]2)c(=O)n(C)c(=O)n3C)cc1`, which T/C [2] is on record?
**A.** 108 % of control

**Q.** And the T/C [3]?
**A.** 94 % of control

**Q.** And the T/C (dose: 480.0 mg/kg/injection, schedule: Q01DX011 (ip), vehicle: carboxymethylcellulose (CMC))?
**A.** 64 % of control

**Q.** Which results are given for `COC1=C(N)C(=O)c2nc(-c3nc(C(=O)O)c(C)c(-c4ccc(OC)c(OC)c4O)c3N)ccc2C1=O`?
**A.** T/C (dose: 0.02 mg/kg/injection, schedule: Q01DX011 (ip), vehicle: water): 72 % of control; T/C (dose: 0.04 mg/kg/injection, schedule: Q01DX011 (ip), vehicle: water): 47 % of control; T/C (dose: 0.08 mg/kg/injection, schedule: Q01DX011 (ip), vehicle: water): 55 % of control; T/C (dose: 0.16 mg/kg/injection, schedule: Q01DX011 (ip), vehicle: water): 4 % of control; T/C (dose: 0.25 mg/kg/injection, schedule: Q01DX006 (ip), vehicle: water): 41 % of control; T/C (dose: 0.5 mg/kg/injection, schedule: Q01DX006 (ip), vehicle: water): 10 % of control; T/C (dose: 50.0 micrograms/kg/injection, schedule: Q01DX011 (ip), vehicle: water): 36 % of control; T/C (dose: 75.0 micrograms/kg/injection, schedule: Q01DX011 (ip), vehicle: water): 30 % of control

**Q.** With `Nc1nc(Cl)c2[nH]cnc2n1` as the compound, how does the T/C [6] read?
**A.** 60 % of control

**Q.** And the T/C [7]?
**A.** 13 % of control

**Q.** What about the T/C [8] of the same compound?
**A.** 4 % of control

**Q.** How did the T/C (dose: 3.9 mg/kg/injection, schedule: Q01DX011 (ip), vehicle: methylcellulose (MC)) turn out when `Cc1cccc(CSc2nc(N)nc3nc[nH]c23)n1` was run?
**A.** 17 % of control

**Q.** And the T/C (dose: 7.8 mg/kg/injection, schedule: Q01DX011 (ip), vehicle: methylcellulose (MC))?
**A.** 20 % of control

**Q.** What about the T/C (dose: 15.6 mg/kg/injection, schedule: Q01DX011 (ip), vehicle: methylcellulose (MC)) of the same compound?
**A.** 5 % of control

**Q.** And the T/C (dose: 31.25 mg/kg/injection, schedule: Q01DX011 (ip), vehicle: methylcellulose (MC))?
**A.** 1 % of control

**Q.** How did the T/C (dose: 15.0 mg/kg/injection, schedule: Q01DX011 (ip), vehicle: methylcellulose (MC)) turn out when `CCN(CC)c1nc(SCc2ccc(Cl)cc2Cl)ncc1C` was run?
**A.** 56 % of control

**Q.** What about the T/C [6] of the same compound?
**A.** 89 % of control

**Q.** And the T/C [7]?
**A.** 71 % of control

**Q.** And the T/C [8]?
**A.** 61 % of control

**Q.** What about the T/C (dose: 250.0 mg/kg/injection, schedule: Q01DX011 (ip), vehicle: methylcellulose (MC)) of the same compound?
**A.** 54 % of control

**Q.** How did the T/C (dose: 3.5 mg/kg/injection, schedule: Q01DX011 (sc), vehicle: steriod suspending solution) turn out when `CC(=O)[C@H]1CC[C@H]2[C@@H]3C[C@H](F)C4=CC(=O)CC[C@]4(C)[C@H]3C(=O)C[C@]12C` was run?
**A.** 82 % of control

**Q.** And the T/C (dose: 7.0 mg/kg/injection, schedule: Q01DX011 (sc), vehicle: steriod suspending solution)?
**A.** 66 % of control

**Q.** And the T/C (dose: 55.0 mg/kg/injection, schedule: Q01DX011 (sc), vehicle: steriod suspending solution)?
**A.** 15 % of control and 20 % of control

**Q.** What about the T/C (dose: 110.0 mg/kg/injection, schedule: Q01DX011 (sc), vehicle: steriod suspending solution) of the same compound?
**A.** 13 % of control and 14 % of control

**Q.** And the T/C (dose: 220.0 mg/kg/injection, schedule: Q01DX011 (sc), vehicle: steriod suspending solution)?
**A.** 3 % of control and 8 % of control
